US6818414B1, “Method of pretreatment of sample for quantitating cholesterol and method for quantitating cholesterol in specific lipoproteins by using the same” (Daiichi Pure Chemicals Co., Ltd., priority 1999, dated 2004)

System: cholesterol oxidase
Assay: Relative absorbance of free cholesterol reaction in serum with cholesterol oxidase and fulfenamic acid (Reagents J to L)
Assay type: biochemical
Conditions: 600 nm, 37° C. 5 minutes, pH 6.0/7.0/8.0, 5.0 U/mL cholesterol oxidase and 0 mM fulfenamic acid = 100, average of four serum samples
Procedure: Reagents J to L shown below in Table 6 were prepared, which commonly contained 1.25 U/mL peroxidase (product of Toyobo Co., Ltd.), 0.01% 4-aminoantipyrine, 0.02% disulfo butyl-m-toluidine and 50 mM NaCl and were different from each other in the kind and pH of buffer and the concentrations of cholesterol oxidase (product of Toyobo Co., Ltd.) and fulfenamic acid (product of Sigma Chemical Co.).
Reagents J to L (300 μL) were separately added to aliquots (3 μL) of each serum sample. After the resultant mixtures were incubated at 37° C. for 5 minutes, their absorbances were measured at600 nm. The above procedures were conducted using the Hitachi 7150 automated analyzer.
With respect to each of Reagents J to L, relative absorbances were calculated for the individual concentrations of cholesterol oxidase and fulfenamic acid by assuming that the absorbance obtained with a reagent containing 5.0 U/mL cholesterol oxidase and 0 mM fulfenamic acid was 100.
Results, which had been obtained by averaging the relative absorbances of the four samples, are presented in FIG. 3. in which “COD” stands for cholesterol oxidase.

## O=C(O)c1ccccc1Nc1cccc(C(F)(F)F)c1 [fulfenamic acid, flufenamic acid]
  relative absorbance: increased depending upon the concentration of fulfenamic acid irrespective of the pH
